Broadly, the IC50 is the concentration at which inhibition is half-maximal.

This experiment is described as follows: Wnt APC Inhibition Assay: Reporter cell lines can be generated by stably transducing cells of cancer cell lines (e.g., colon cancer) with a lentiviral construct that include a wnt-responsive promoter driving expression of the firefly luciferase gene.Lentiviral constructs can be made in which the SP5 promoter, a promoter having eight TCF/LEF binding sites derived from the SP5 promoter, is linked upstream of the firefly luciferase gene. The lentiviral constructs can also include a hygromycin resistance gene as a selectable marker. The SP5 promoter construct can be used to transduce SW480 cells, a colon cancer cell line having a mutated APC gene that generates a truncated APC protein, leading to de-regulated accumulation of β-catenin. […] Compounds from a small molecule compound library can then be added to the wells in half-log dilutions using a ten micromolar top concentration. A series of control wells for each cell type receive only buffer and compound solvent. Twenty-four to forty hours after the addition of compound, reporter activity for luciferase can be assayed, for example, by addition of the BrightGlo luminescence reagent (Promega) and the Victor3 plate reader (Perkin Elmer). Readings can be normalized to DMSO only treated cells, and normalized activities can then be used in the IC50 calculations.

Several values for one entry are separate records, joined by “and”; a condition that tells them apart may be missing. Equal values may be shown once.

For the compound `CC(C)(C)C(=O)Nc1cncc(-c2cnc3[nH]nc(-c4nc5c(-c6cccc(F)c6)cncc5[nH]4)c3c2)c1`, the half-inhibitory concentration (IC50) is 38 nM and 6 nM.

Source of the values: ChEMBL document CHEMBL5725609, “1H-pyrazolo[3,4-b]pyridines and therapeutic uses thereof” (2018).
